Reference: publication PMC3950855 (British Journal of Cancer, 2014)
Where “and” joins values, the source holds several entries; their conditions need not be identical. Identical values can stand only once.

Assays:
[1] = Phase I trial safety: adverse events; format: in vivo, human
[2] = tested on: histone H3 acetylation in PBMNC; assay: Acetylation of histone H3 in PBMNC of study patients; format: in vivo, human; conditions: dose level 1, three patients
PBMNC = format: cell-based, human; conditions: ex vivo incubation for 8 h
[3] = tested on: GIST-T1 (exon 11-mutant) cells; assay: GIST-T1 cells immunoblot; format: cell-based
CYP2D6 = conditions: ref Hamberg et al, 2011; Filppula et al, 2012; cited from earlier work
[4] = 20 mg thrice weekly; ref Fukutomi et al (2012); cited from earlier work
[5] = Plasma pharmacokinetics by LC/PDA; conditions: human, in vivo, im, Panobinostat Cmax (mean), 20 mg
[6] = both dose levels + IM 400 mg, 12 patients
[7] = panobinostat + IM 400 mg, 12 patients
[8] = Pan 50 nm for 8 h, then withdrawal

SMILES: Cc1[nH]c2ccccc2c1CCNCc1ccc(/C=C/C(=O)NO)cc1 [panobinostat, Panobinostat]
- Anaemia, % of patients [1, 6]: 42% and 41.7%
- Anaemia, No. of patients Total [1, 6]: 5
- Chills, % of patients [1, 6]: 16.7%
- Chills, No. of patients Total [1, 6]: 2
- Constipation, % of patients [1, 6]: 16.7%
- Constipation, No. of patients Total [1, 6]: 2
- Creatinine, % of patients [1, 6]: 58% and 58.3%
- Creatinine, No. of patients Total [1, 6]: 7
- Diarrhoea, % of patients [1, 6]: 42% and 41.7%
- Diarrhoea, No. of patients Total [1, 6]: 5
- Dizziness, % of patients [1, 6]: 25.0%
- Dizziness, No. of patients Total [1, 6]: 3
- Dry mouth, % of patients [1, 6]: 16.7%
- Dry mouth, No. of patients Total [1, 6]: 2
- Dry skin, % of patients [1, 6]: 16.7%
- Dry skin, No. of patients Total [1, 6]: 2
- Dysgeusia, % of patients [1, 6]: 16.7%
- Dysgeusia, No. of patients Total [1, 6]: 2
- Dyspepsia, % of patients [1, 6]: 25.0%
- Dyspepsia, No. of patients Total [1, 6]: 3
- Fatigue, % of patients [1, 6]: 67% and 66.7%
- Fatigue, No. of patients Total [1, 6]: 8
- Headache, % of patients [1, 6]: 16.7%
- Headache, No. of patients Total [1, 6]: 2
- Hypothyroidism, % of patients [1, 6]: 25.0%
- Hypothyroidism, No. of patients Total [1, 6]: 3
- Lymphopenia, % of patients [1, 6]: 16.7%
- Lymphopenia, No. of patients Total [1, 6]: 2
- Muscle spasms, % of patients [1, 6]: 25.0%
- Muscle spasms, No. of patients Total [1, 6]: 3
- Nausea, % of patients [1, 6]: 50%
- Nausea, No. of patients Total [1, 6]: 6
- Neutropenia, % of patients [1, 6]: 16.7%
- Neutropenia, No. of patients Total [1, 6]: 2
- Oedema, % of patients [1, 6]: 25.0%
- Oedema, No. of patients Total [1, 6]: 3
- Thrombocytopenia, % of patients [1, 6]: 91.7%
- Thrombocytopenia, No. of patients Total [1, 6]: 11
- Vomiting, % of patients [1, 6]: 33% and 33.3%
- Vomiting, No. of patients Total [1, 6]: 4
- Weight loss, % of patients [1, 6]: 25.0%
- Weight loss, No. of patients Total [1, 6]: 3
- MTD (dose level) ([1]; dose level 1 = panobinostat 20 mg + IM 400 mg): dose level 1
- dose-limiting toxicity ([1]; dose level 2 (30 mg panobinostat and 400 mg IM)): severe thrombocytopenia
- Anaemia, No. of patients Grade 2 ([1]; panobinostat 20 mg + IM 400 mg): 3
- Anaemia, No. of patients Total ([1]; panobinostat 20 mg + IM 400 mg): 3
- Chills, No. of patients Grade 1 ([1]; panobinostat 20 mg + IM 400 mg): 1
- Chills, No. of patients Grade 2 ([1]; panobinostat 20 mg + IM 400 mg): 1
- Chills, No. of patients Total ([1]; panobinostat 20 mg + IM 400 mg): 2
- Constipation, No. of patients Grade 1 ([1]; panobinostat 20 mg + IM 400 mg): 1
- Constipation, No. of patients Total ([1]; panobinostat 20 mg + IM 400 mg): 1
- Creatinine, No. of patients Grade 1 ([1]; panobinostat 20 mg + IM 400 mg): 2
- Creatinine, No. of patients Grade 2 ([1]; panobinostat 20 mg + IM 400 mg): 2
- Creatinine, No. of patients Grade 3 ([1]; panobinostat 20 mg + IM 400 mg): 1
- Creatinine, No. of patients Total ([1]; panobinostat 20 mg + IM 400 mg): 5
- Diarrhoea, No. of patients Grade 1 ([1]; panobinostat 20 mg + IM 400 mg): 3
- Diarrhoea, No. of patients Grade 2 ([1]; panobinostat 20 mg + IM 400 mg): 1
- Diarrhoea, No. of patients Total ([1]; panobinostat 20 mg + IM 400 mg): 4
- Dizziness, No. of patients Grade 1 ([1]; panobinostat 20 mg + IM 400 mg): 2
- Dizziness, No. of patients Total ([1]; panobinostat 20 mg + IM 400 mg): 2
- Dry mouth, No. of patients Grade 1 ([1]; panobinostat 20 mg + IM 400 mg): 2
- Dry mouth, No. of patients Total ([1]; panobinostat 20 mg + IM 400 mg): 2
- Dry skin, No. of patients Grade 1 ([1]; panobinostat 20 mg + IM 400 mg): 1
- Dry skin, No. of patients Total ([1]; panobinostat 20 mg + IM 400 mg): 1
- Dysgeusia, No. of patients Grade 1 ([1]; panobinostat 20 mg + IM 400 mg): 2
- Dysgeusia, No. of patients Total ([1]; panobinostat 20 mg + IM 400 mg): 2
- Dyspepsia, No. of patients Grade 1 ([1]; panobinostat 20 mg + IM 400 mg): 2
- Dyspepsia, No. of patients Total ([1]; panobinostat 20 mg + IM 400 mg): 2
- Fatigue, No. of patients Grade 1 ([1]; panobinostat 20 mg + IM 400 mg): 3
- Fatigue, No. of patients Grade 2 ([1]; panobinostat 20 mg + IM 400 mg): 3
- Fatigue, No. of patients Total ([1]; panobinostat 20 mg + IM 400 mg): 6
- Headache, No. of patients Grade 1 ([1]; panobinostat 20 mg + IM 400 mg): 1
- Headache, No. of patients Total ([1]; panobinostat 20 mg + IM 400 mg): 1
- Hypothyroidism, No. of patients Grade 1 ([1]; panobinostat 20 mg + IM 400 mg): 3
- Hypothyroidism, No. of patients Total ([1]; panobinostat 20 mg + IM 400 mg): 3
- Lymphopenia, No. of patients Grade 3 ([1]; panobinostat 20 mg + IM 400 mg): 1
- Lymphopenia, No. of patients Total ([1]; panobinostat 20 mg + IM 400 mg): 1
- Muscle spasms, No. of patients Grade 1 ([1]; panobinostat 20 mg + IM 400 mg): 1
- Muscle spasms, No. of patients Grade 2 ([1]; panobinostat 20 mg + IM 400 mg): 1
- Muscle spasms, No. of patients Total ([1]; panobinostat 20 mg + IM 400 mg): 2
- Nausea, No. of patients Grade 1 ([1]; panobinostat 20 mg + IM 400 mg): 1
- Nausea, No. of patients Grade 2 ([1]; panobinostat 20 mg + IM 400 mg): 1
- Nausea, No. of patients Total ([1]; panobinostat 20 mg + IM 400 mg): 2
- Neutropenia, No. of patients Grade 4 ([1]; panobinostat 20 mg + IM 400 mg): 1
- Neutropenia, No. of patients Total ([1]; panobinostat 20 mg + IM 400 mg): 1
- Oedema, No. of patients Grade 1 ([1]; panobinostat 20 mg + IM 400 mg): 2
- Oedema, No. of patients Total ([1]; panobinostat 20 mg + IM 400 mg): 2
- Thrombocytopenia, No. of patients Grade 1 ([1]; panobinostat 20 mg + IM 400 mg): 3
- Thrombocytopenia, No. of patients Grade 2 ([1]; panobinostat 20 mg + IM 400 mg): 1
- Thrombocytopenia, No. of patients Grade 3 ([1]; panobinostat 20 mg + IM 400 mg): 1
- Thrombocytopenia, No. of patients Grade 4 ([1]; panobinostat 20 mg + IM 400 mg): 1
- Thrombocytopenia, No. of patients Total ([1]; panobinostat 20 mg + IM 400 mg): 6
- Vomiting, No. of patients Grade 2 ([1]; panobinostat 20 mg + IM 400 mg): 1
- Vomiting, No. of patients Total ([1]; panobinostat 20 mg + IM 400 mg): 1
- Weight loss, No. of patients Grade 1 ([1]; panobinostat 20 mg + IM 400 mg): 1
- Weight loss, No. of patients Grade 2 ([1]; panobinostat 20 mg + IM 400 mg): 1
- Weight loss, No. of patients Total ([1]; panobinostat 20 mg + IM 400 mg): 2
- Anaemia, No. of patients Grade 2 ([1]; panobinostat 30 mg + IM 400 mg): 2
- Anaemia, No. of patients Total ([1]; panobinostat 30 mg + IM 400 mg): 2
- Chills, No. of patients Total ([1]; panobinostat 30 mg + IM 400 mg): 0
- Constipation, No. of patients Grade 1 ([1]; panobinostat 30 mg + IM 400 mg): 1
- Constipation, No. of patients Total ([1]; panobinostat 30 mg + IM 400 mg): 1
- Creatinine, No. of patients Grade 1 ([1]; panobinostat 30 mg + IM 400 mg): 1
- Creatinine, No. of patients Grade 2 ([1]; panobinostat 30 mg + IM 400 mg): 1
- Creatinine, No. of patients Total ([1]; panobinostat 30 mg + IM 400 mg): 2
- Diarrhoea, No. of patients Grade 1 ([1]; panobinostat 30 mg + IM 400 mg): 1
- Diarrhoea, No. of patients Total ([1]; panobinostat 30 mg + IM 400 mg): 1
- Dizziness, No. of patients Grade 1 ([1]; panobinostat 30 mg + IM 400 mg): 1
- Dizziness, No. of patients Total ([1]; panobinostat 30 mg + IM 400 mg): 1
- Dry mouth, No. of patients Total ([1]; panobinostat 30 mg + IM 400 mg): 0
- Dry skin, No. of patients Grade 1 ([1]; panobinostat 30 mg + IM 400 mg): 1
- Dry skin, No. of patients Total ([1]; panobinostat 30 mg + IM 400 mg): 1
- Dysgeusia, No. of patients Total ([1]; panobinostat 30 mg + IM 400 mg): 0
- Dyspepsia, No. of patients Grade 1 ([1]; panobinostat 30 mg + IM 400 mg): 1
- Dyspepsia, No. of patients Total ([1]; panobinostat 30 mg + IM 400 mg): 1
- Fatigue, No. of patients Grade 2 ([1]; panobinostat 30 mg + IM 400 mg): 2
- Fatigue, No. of patients Total ([1]; panobinostat 30 mg + IM 400 mg): 2
- Headache, No. of patients Grade 2 ([1]; panobinostat 30 mg + IM 400 mg): 1
- Headache, No. of patients Total ([1]; panobinostat 30 mg + IM 400 mg): 1
- Hypothyroidism, No. of patients Total ([1]; panobinostat 30 mg + IM 400 mg): 0
- Lymphopenia, No. of patients Grade 2 ([1]; panobinostat 30 mg + IM 400 mg): 1
- Lymphopenia, No. of patients Total ([1]; panobinostat 30 mg + IM 400 mg): 1
- Muscle spasms, No. of patients Grade 2 ([1]; panobinostat 30 mg + IM 400 mg): 1
- Muscle spasms, No. of patients Total ([1]; panobinostat 30 mg + IM 400 mg): 1
- Nausea, No. of patients Grade 1 ([1]; panobinostat 30 mg + IM 400 mg): 1
- Nausea, No. of patients Grade 2 ([1]; panobinostat 30 mg + IM 400 mg): 2
- Nausea, No. of patients Grade 3 ([1]; panobinostat 30 mg + IM 400 mg): 1
- Nausea, No. of patients Total ([1]; panobinostat 30 mg + IM 400 mg): 4
- Neutropenia, No. of patients Grade 2 ([1]; panobinostat 30 mg + IM 400 mg): 1
- Neutropenia, No. of patients Total ([1]; panobinostat 30 mg + IM 400 mg): 1
- Oedema, No. of patients Grade 1 ([1]; panobinostat 30 mg + IM 400 mg): 1
- Oedema, No. of patients Total ([1]; panobinostat 30 mg + IM 400 mg): 1
- Thrombocytopenia, No. of patients Grade 3 ([1]; panobinostat 30 mg + IM 400 mg): 3
- Thrombocytopenia, No. of patients Grade 4 ([1]; panobinostat 30 mg + IM 400 mg): 2
- Thrombocytopenia, No. of patients Total ([1]; panobinostat 30 mg + IM 400 mg): 5
- Vomiting, No. of patients Grade 1 ([1]; panobinostat 30 mg + IM 400 mg): 2
- Vomiting, No. of patients Grade 2 ([1]; panobinostat 30 mg + IM 400 mg): 1
- Vomiting, No. of patients Total ([1]; panobinostat 30 mg + IM 400 mg): 3
- Weight loss, No. of patients Grade 2 ([1]; panobinostat 30 mg + IM 400 mg): 1
- Weight loss, No. of patients Total ([1]; panobinostat 30 mg + IM 400 mg): 1
- Grade 3 and 4 toxicities clearly attributable to study treatments ([1]; panobinostat + IM 400 mg): thrombocytopenia, neutropenia and nausea
- severe hepatotoxicity ([1]; panobinostat + IM 400 mg): did not occur
- patients with at least one adverse event [1, 7]: All patients
- treatment-related deaths [1, 7]: no treatment-related deaths
- time H3 acetylation was maintained in PBMNCs [2]: 24 h
- concentration at which H3 acetylation became detectable (PBMNC): ≥ 5 ng/mL
- effect of continuous panobinostat treatment for 32 h [3]: reactivation of KIT phosphorylation
- persistence of H3 acetylation after removal of panobinostat [3, 8]: 8 h
- time to complete disappearance of H3 acetylation after removal [3, 8]: ≤ 24 h
- CYP2D6 inhibition (CYP2D6): weak inhibitor
- Cmax plasma level, panobinostat monotherapy [4]: 10 ng /ml^−1
- Cmax ([5]; D1, with IM 400 mg): 36.1 nM
- Cmax ([5]; D8, with IM 400 mg): 47.5 nM
- Cmax ([5]; D15, with IM 400 mg): 44.6 nM
